According to patent publication US5334703A, “Chromogenic substrate” (Chromonogenix AB, priority 1989, dated 1994):
Structures can show the parent of a compound that is named as a salt. Peptide text beside a SMILES is read from it. * marks the point of attachment. pNA = O=[N+]([O-])c1ccc(N*)cc1

Tested on: activated LAL (Limulus Amebocyte Lysate)
Assay: Single-stage chromogenic LAL-test (hydrolysis of the chromogenic substrate by endotoxin-activated LAL, pNA read at 405 nm)
Format: biochemical, Limulus Potyphemus
Settings: substrate concentration 2.2 mM in the reaction solution; endotoxin 0.1-1.2 EU/ml; Tris buffer pH 7.9; 37° C., 15 min; absorbance 405 nm
Description: A series of endotoxin containing solutions, making up a standard curve in the range 0.1-1.2 EU/ml, were assayed as described below using the different chromogenic substrates. The slopes of the resulting standard curves were compared and the slope for the substrate S-2423 was considered to be 100%.
A reagent (100 μl) consisting of a mixture of LAL (50% of the clotting concentration) and the chromogenic substrate (4.4 mM) in a Tris buffer of pH 7.9 is added to an equal volume of the sample. The resulting reaction (activation of the LAL and the subsequent hydrolyses of the chromogenic substrate)is carried out at 37° C. After 15 min. the reaction is terminated by the addition of 400 μl of acetic acid and the absorbance is read at 405 nm.
Substrate S-2423 (Ac-Ile-Glu-Gly-Arg-pNA.HCl) is taken as standard.

Row | Compound | Relative activity (slope of endotoxin standard curve, S-2423 = 100%) [%]
1 | CC[C@H](C)[C@H](NC(C)=O)C(=O)N[C@@H](CCC(=O)O)C(=O)OCC(=O)N[C@@H](CCCNC(=N)N)C(=O)Nc1ccc([N+](=O)[O-])cc1 [Substrate S-2860, Ac--Ile--Glu-Glycolyl-Arg--pNA.HCl] | 142
2 | CC[C@H](C)[C@H](NC(C)=O)C(=O)N[C@@H](CCC(=O)O)C(=O)NCC(=O)N[C@@H](CCCNC(=N)N)C(=O)Nc1ccc([N+](=O)[O-])cc1 [Substrate S-2423, Ac--Ile--Glu--Gly--Arg--pNA.HCl, reference compound] (Ac-IEGR-pNA) | 100
3 | CC[C@H](C)[C@H](NC(C)=O)C(=O)N[C@@H](CO)C(=O)NCC(=O)N[C@@H](CCCCN)C(=O)Nc1ccc([N+](=O)[O-])cc1 [Substrate S-2854, Ac--Ile--Ser--Gly--Lys--pNA.HCl] (Ac-ISGK-pNA) | 131
4 | CC[C@H](C)[C@H](NC(C)=O)C(=O)N[C@@H](CCC(=O)O)C(=O)NCC(=O)N[C@@H](CCCCN)C(=O)Nc1ccc([N+](=O)[O-])cc1 [Substrate S-2834, Ac--Ile--Glu--Gly--Lys--pNA.HCl] (Ac-IEGK-pNA) | 126
